Reference: patent publication US7018796B2, “Preincubation assay methods” (Shionogi & Co., Ltd., priority 2000, dated 2006)
Entries after “also recorded” stand apart in the source; their conditions may differ.

What was measured:
[1] = target: T1, HCV RNA-dependent RNA polymerase (Hepatitis C virus genotype 1a, UniProt P27958); test: Prior assay method without pre-incubation, 3H-UTP (Reference 1); type: biochemical; details: no pre-incubation
T1 construct: HCV RNA-dependent RNA polymerase is encoded in the NS5B (nonstructural protein 5B) region of HCV; made in house; host or cells: insect cells or E. coli
T1 sequence (P27958 2421-3011): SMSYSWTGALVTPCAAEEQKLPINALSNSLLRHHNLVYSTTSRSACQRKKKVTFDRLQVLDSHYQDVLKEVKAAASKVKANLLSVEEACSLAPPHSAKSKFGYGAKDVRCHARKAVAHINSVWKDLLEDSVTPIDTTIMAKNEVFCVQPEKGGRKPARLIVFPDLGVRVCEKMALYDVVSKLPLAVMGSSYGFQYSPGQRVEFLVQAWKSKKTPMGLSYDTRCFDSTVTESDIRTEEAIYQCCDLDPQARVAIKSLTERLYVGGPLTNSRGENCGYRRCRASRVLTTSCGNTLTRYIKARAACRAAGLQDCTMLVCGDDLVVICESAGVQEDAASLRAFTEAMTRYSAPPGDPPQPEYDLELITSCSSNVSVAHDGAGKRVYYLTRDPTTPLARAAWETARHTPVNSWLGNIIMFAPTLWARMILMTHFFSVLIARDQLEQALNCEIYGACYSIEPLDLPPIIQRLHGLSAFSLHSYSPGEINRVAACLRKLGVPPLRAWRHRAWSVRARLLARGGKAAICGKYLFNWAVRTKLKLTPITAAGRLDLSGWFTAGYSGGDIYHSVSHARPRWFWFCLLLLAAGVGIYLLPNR
From the text: A HCV RNA-dependent RNA polymerase, template RNA, primer RNA, substrate RNA, Mg ion (Mg^2+) and a test substance are mixed at the same time to start an enzyme reaction and measure an enzyme activity. It can be known whether a test substance activates or inhibits an activity of a HCV RNA-dependent RNA polymerase by comparing the above value of an enzyme activity with that measured in the absence of a test substance. IC50 value can be used, which is a concentration of a test substance able to inhibit 50% of an enzyme activity. For example, one of prior methods can be carried out in accordance with the later described Reference 1.
A cDNA encoding HCV RNA-dependent RNA polymerase was made by use of HCV positive human plasma and HCV RNA-dependent RNA polymerase was expressed using the insect cells or the E. coli. HCV RNA-dependent RNA polymerase in the cell extract was purified by use of an anion exchange chromatography, a heparin affinity chromatography, a polyU affinity chromatography, a cation exchange chromatography and gel filtration chromatography. The purification was performed at 4° C. and Tris buffer (pH 7.5) containing ethylenediaminetetraacetic acid (1 mM), dithiothreitol (10 mM) and glycerol (20%) was used. The enzyme purified was stored at 4° C. until use for the assays.
The prior assay method using HCV RNA-dependent RNA polymerase • 1) The buffer I ^1) (10.5 μl) containing Tris-HCl (100 mM, pH 7.5), MgCl2 (25 mM), dithiothreitol (5 mM), KCl (125 mM) and ethylenediaminetetraacetic acid (5 mM) was transferred to a polypropylene tube and then poly(A)^2) solution (100 μg/ml, 10.5 μl), oligo(U)12 ^3) solution (1 μg/ml, 10.5 μl) and water (8 μl) were added into the tube. After mixing, the tube was cooled on ice. • 2) Next, HCV RNA-dependent RNA polymerase (10.5 μl) cooled on ice was added into the tube and mixed. • 3) The mixture cooled (50 μl) was added to a test compound (5.26 μl/well) dissolved with dimethyl sulfoxide or water in a well of a 96-wells microtiter plate. • 4) Additionally, the buffer II (10.6 μl) containing Tris-HCl (100 mM, pH 7.5), MgCl2 (25 mM), dithiothreitol (5 mM), KCl (125 mM), ethylenediaminetetraacetic acid (5 mM) and UTP ^4) (2.1 μM, 1 μCi ^3H-UTP), was mixed with water (39.4 μl). The mixture (50 μl) was added into the well and mix, and then the enzyme reaction was performed at 25° C. for 30 min. • 5) After enzyme reaction for 30 min, the enzyme reaction was stopped by adding disodium ethylenediaminetetraacetic acid (50 mM, 50 μl). • 6) By use of the cell-harvester, all volume of the enzyme reaction sample which was described in 5) was transferred onto a DEAE-filtermat and washed twice for 10 see with sodium phosphate buffer (0.25 M, pH 7.0) and once for 10 sec with de-ionized water. • 7) The DEAE-filtermat was dried at 95° C. for 15 min and transferred into a sample bag with liquid scintillater (10 ml), and then a sample bag was sealed. • 8) The radio activity was measured by a scintillation counter. • 9) The inhibitory rate was calculated from the radioactivity measured (ccpm) as follows. [formula]

[2] = target: T1, HCV RNA-dependent RNA polymerase; test: DIG-UTP assay without radioisotope-labeled substrate, without pre-incubation (Example 2); type: biochemical; details: no pre-incubation, I-1 0.5 μg/ml, 3′-dUTP 0.7 μM, A 100 μg/ml, B 50 μg/ml, C 25 μg/ml
Protocol: After mixing by a plate mixer, the solution was pre-incubated at 25° C. for 1 hr. • 10) On the other hand, the buffer I (10 μl) was transferred into another tube, and UTP (1 μM, 10 μl), DIG-UTP (300 μM, 1 μl), water (24 μl) and a test compound dissolved with dimethyl sulfoxide or water (5 μl) were added to the tube and mixed calmly. Concentrations of the compounds used were as follows.
• 11) The mixed solution (50 μl/well) described in 10) was transferred into each well after the pre-incubation described in 9), mixed by a plate mixer and then incubated at 25° C. for 1 hr. • 12) When the enzyme reaction was in 1 hr, the enzyme reaction was stopped by adding ethylenediaminetetraacetic acid (0.1 M, 50 μl/well). • 13) The plate was washed twice with PBS (200 μl/well) after end of the enzyme reaction. • 14) Next, alkaline phosphatase-labeled anti-DIG antibody (3 U/ml, 100 μl/well) diluted 250-fold with PBS containing skim milk (0.5%) was transferred each well. After mixing by a plate mixer, immuno-reaction was performed at 25° C. for 1 hr. • 15) Each well was washed twice with PBS (200 μl/well) containing skim milk (0.05%) and then washed twice with PBS (200 μl/well). • 16) Substrate solution (150 μl/well) for alkaline phosphatase was prepared by mixing of Tris-HCl (100 mM, pH 9.5), NaCl (100 mM), MgCl2 (5 mM) and p-nitrophenyl phosphate (6 mM) just before use. The substrate solution was transferred into each well of the plate, mixed by a plate mixer and then incubated at 25° C. for 1 hr until the color appears in the solution. • 17) The plate was set on a plate reader and the absorbance was measured at 405 nm. • 18) The inhibitory rate was calculated from the optical density (unit; OD) measured as follows. [formula]
Table 4 summarized the comparison between inhibitory rates in the assay with the pre-incubation and those in the assay without the pre-incubation.

[3] = prior method, I-1 0.5 μg/ml, 3′-dUTP 0.7 μM, A 100 μg/ml, B 50 μg/ml, C 25 μg/ml

O=C1NC(=O)C(=Cc2ccc(OCCc3cccc4ccccc34)cc2)C(=O)N1 [Compound B]
Judgement in the prior method (positive / negative) [1]: positive data
Inhibitory rate (Table 3) [1, 3]: 63%
Inhibitory rate, treatment of pre-incubation − [2]: 28%

O=C(O)/C(O)=C/C(=O)c1cccc(O)c1 [Compound I-1]
inhibition at 0.5 µg/mL ([1]; prior method, I-1 0.5 μg/ml, 3′-dUTP 0.7 μM, A 100 μg/ml, B 50 μg/ml, C 25 μg/ml, read-out: Inhibitory rate (Table 3)): 62%
inhibition at 0.5 µg/mL ([2]; read-out: Inhibitory rate, treatment of pre-incubation −): 59%

CCCCC1=N/C(=C\c2ccccc2OCC(=O)O)C(=O)N1Cc1ccc(-c2ccccc2-c2nnn[nH]2)cc1 [Compound C]
Judgement in the prior method (positive / negative) [1]: positive data; also recorded: positive result
Inhibitory rate (Table 3) [1, 3]: 67%
Inhibitory rate, treatment of pre-incubation − [2]: 87%

O=c1ccn([C@@H]2O[C@H](COP(=O)(O)OP(=O)(O)OP(=O)(O)O)C[C@H]2O)c(=O)[nH]1 [3′-dUTP, 3′-deoxyuridine triphosphate]
Inhibitory rate (Table 3) [1, 3]: 68%
Inhibitory rate, treatment of pre-incubation − [2]: 44%

Cc1oc(-c2ccccc2)nc1CCOc1ccc(C=C2C(=O)NC(=O)NC2=O)cc1 [Compound A]
Judgement in the prior method (positive / negative) [1]: positive data
Inhibitory rate (Table 3) [1, 3]: 50%
Inhibitory rate, treatment of pre-incubation − [2]: 87%
